Reference: patent publication US9708639B2, “Method for quantifying amino acids with pyrophosphate” (TOYAMA PREFECTURE, priority 2012, dated 2017)

Key:
[1] = target: T1, Thermotoga-derived SerRS (Thermotoga maritima, UniProt Q9X199); test: Qualitative test of AARS substrate specificity (molybdenum blue method); type: biochemical, Thermotoga maritima MSB8 strain; design: key: +: Activity was detected; −: Activity was not detected; details: Tyr 1 mM, other amino acids 5 mM; hydroxylamine 1000 mM; SerRS 0.1 mg/ml (1 mU/ml); 30° C.
T1 construct: His tag (C); made in house; host or cells: Escherichia coli BL21 (DE3)
T1 sequence (Q9X199 whole entry): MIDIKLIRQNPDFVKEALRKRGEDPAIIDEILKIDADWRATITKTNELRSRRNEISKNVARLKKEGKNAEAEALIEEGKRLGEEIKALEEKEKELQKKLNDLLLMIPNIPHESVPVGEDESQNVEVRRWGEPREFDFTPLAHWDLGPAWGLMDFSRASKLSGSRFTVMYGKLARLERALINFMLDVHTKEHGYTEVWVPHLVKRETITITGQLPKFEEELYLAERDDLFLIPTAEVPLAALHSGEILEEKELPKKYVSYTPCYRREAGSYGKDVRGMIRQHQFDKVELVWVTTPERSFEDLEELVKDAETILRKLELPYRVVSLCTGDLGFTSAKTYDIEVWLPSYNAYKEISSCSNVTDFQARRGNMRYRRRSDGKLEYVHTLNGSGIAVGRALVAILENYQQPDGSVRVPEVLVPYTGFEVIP
Experimental: (§1) A test sample containing an amino acid as the measurement subject and a reaction mixture for quantifying amino acid having the following composition were mixed. The mixture was left standing at 30° C. to allow the AARS reaction to advance. The mixture in a volume of 33 μl, 66 μl of water, and 1 μl of a 300 U/ml yeast pyrophosphatase solution were mixed, and left standing at room temperature for 20 minutes to allow the pyrophosphatase reaction to advance. Then, the reaction mixture was mixed with 100 μl of a color development solution A and 30 μl of a color developing solution B having the following compositions, then the mixture was left standing at room temperature for 5 minutes, and the absorbance was measured at 700 nm or 900 nm with a microplate reader.
(§2) Reaction mixture for quantifying amino acid: 20 mM Tris-HCl (pH 7.0), 5 mM MgCl2, 2 mM ATP, and AARS (concentrations are final concentrations obtained after mixing with test sample)
(§3) Color developing solution A: A solution obtained by mixing water and concentrated sulfuric acid at a ratio of 3:1 and dissolving (NH4)6Mo7O24.4H2O in the mixture at a concentration of 0.066 g/ml
(§4) Color developing solution B: A solution obtained by mixing water and concentrated sulfuric acid at a ratio of 10000:7 and dissolving FeSO4.7H2O in the mixture at a concentration of 145 mg/ml
(§5) Presence or absence of pyrophosphate generation was verified for the Thermotoga-derived CysRS, HisRS, LysRS, ProRS, SerRS, TrpRS, and TyrRS by using the AARS activity measurement method described in 9. and standard solutions of the various amino acids as test samples. AARSs were added to the reaction mixture at final concentrations of 0.3 (8 mU/ml), 0.1, 0.2 (3 mU/ml), 0.2, 0.1 (1 mU/ml), 0.1, 0.2 (20 mU/ml) mg/ml, respectively. The reaction mixtures were prepared so that the final concentration of Tyr was 1 mM, and the final concentrations of the other amino acids were 5 mM. As for the hydroxylamine concentration, it was added at a final concentration of 1000 mM for all the cases. Further, presence or absence of pyrophosphate production was also verified for the Thermus-derived MetRS and TyrRS by using the AARS activity measurement method described in 10. and standard solutions of the various amino acids as test samples. The reaction mixtures were prepared so that the final concentrations of the amino acids were 200 μM. Hydroxylamine was added at a final concentration of 400 mM.
(§6) Detection or no detection of the activity in the reaction mixtures containing a combination of each AARS and amino acid are shown in Table 2. The symbol + indicates detection of the activity, and − indicates no detection of the activity.

[2] = target: T2, Thermotoga-derived TrpRS (Thermotoga maritima, UniProt Q9WYW2); test: as above; type: biochemical, Thermotoga maritima MSB8 strain; design: key: +: Activity was detected; −: Activity was not detected; details: Tyr 1 mM, other amino acids 5 mM; hydroxylamine 1000 mM; TrpRS 0.1 mg/ml; 30° C.
T2 construct: His tag (C); made in house; host or cells: Escherichia coli BL21 (DE3)
T2 sequence (Q9WYW2 1-328): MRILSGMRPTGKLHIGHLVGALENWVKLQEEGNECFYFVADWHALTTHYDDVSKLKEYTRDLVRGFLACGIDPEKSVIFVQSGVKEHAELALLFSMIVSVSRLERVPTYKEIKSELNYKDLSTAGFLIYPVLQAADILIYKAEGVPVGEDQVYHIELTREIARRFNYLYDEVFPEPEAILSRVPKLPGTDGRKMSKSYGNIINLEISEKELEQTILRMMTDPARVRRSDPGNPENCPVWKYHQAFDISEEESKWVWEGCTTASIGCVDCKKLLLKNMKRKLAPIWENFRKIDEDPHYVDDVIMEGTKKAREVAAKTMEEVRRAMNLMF
Experimental: as §1, §2, §3, §4, §5, §6

SMILES	Detection of the activity (pyrophosphate generation), SerRS [1]	Detection of the activity (pyrophosphate generation), TrpRS [2]
C[C@H](N)C(=O)O [Ala, L-alanine]	−	−
N=C(N)NCCC[C@H](N)C(=O)O [Arg, L-arginine]	−	−
NC(=O)C[C@H](N)C(=O)O [Asn, L-asparagine]	−	−
N[C@@H](CC(=O)O)C(=O)O [Asp, L-aspartic acid]	−	−
N[C@@H](CS)C(=O)O [Cys, L-cysteine]	−	−
NC(=O)CC[C@H](N)C(=O)O [Gln, L-glutamine]	−	−
N[C@@H](CCC(=O)O)C(=O)O [Glu, L-glutamic acid]	−	−
NCC(=O)O [Gly, glycine]	−	−
N[C@@H](Cc1c[nH]cn1)C(=O)O [His, L-histidine]	−	−
CC[C@H](C)[C@H](N)C(=O)O [Ile, L-isoleucine]	−	−
CC(C)C[C@H](N)C(=O)O [Leu, L-leucine]	−	−
NCCCC[C@H](N)C(=O)O [Lys, L-lysine]	−	−
CSCC[C@H](N)C(=O)O [Met, L-methionine]	−	−
N[C@@H](Cc1ccccc1)C(=O)O [Phe, L-phenylalanine]	−	−
O=C(O)[C@@H]1CCCN1 [Pro, L-proline]	−	−
N[C@@H](CO)C(=O)O [Ser, L-serine]	+	−
C[C@@H](O)[C@H](N)C(=O)O [Thr, L-threonine]	−	−
N[C@@H](Cc1c[nH]c2ccccc12)C(=O)O [Trp, L-tryptophan]	−	+
N[C@@H](Cc1ccc(O)cc1)C(=O)O [Tyr, L-tyrosine]	−	−
CC(C)[C@H](N)C(=O)O [Val, L-valine]	−	−
